Source: patent US20200069702A1, “ORAL PHARMACEUTICAL COMPOSITIONS COMPRISING AN UNMICRONIZED SELECTIVE PROGESTERONE RECEPTOR AS ACTIVE AGENT” (Repros Therapeutics Inc., priority 2016, published 2020)

System: uterine fibroids
Test: Phase 2 study of orally administered Formulation B in women with uterine fibroids
Type: in vivo, human
Excerpt: After menses occurred, a second 18 week course of treatment followed.

COCC(=O)[C@@]1(OC(C)=O)CC[C@H]2[C@@H]3CCC4=CC(=O)CCC4=C3[C@@H](c3ccc(N(C)C)cc3)C[C@@]21C [CDB-4124, 21-methoxy-17a-acetoxy-11β-(4 N, N-dimethylaminophenyl)-19-norpregna-4,9-diene-3,20-dione]
reduction in fibroid size (volume) compared to baseline (oral 12 mg once per day, after two 18 week cycles, median, p=0.0004 vs placebo): 64.9%
subjects who achieved amenorrhea (oral 12 mg once per day, end of second 18 week course (36 weeks total active treatment)): 100%
improvement in Uterine Fibroid Symptom Severity Score (UFSQOL), LOCF median (oral 12 mg once per day, p=0.0211 vs placebo): 70.9%
subjects who achieved amenorrhea (vaginally treated subjects (comparison)): 50%
